Measured values published in patent US7968577B2 (Bristol-Myers Squibb Company, priority 2006, dated 2011).

Legend:
[1] = target: T1, human glucocorticoid receptor (Homo sapiens, UniProt P04150); experiment: Glucocorticoid Receptor Binding Assay (I), fluorescence polarization competitor kit (Fluormone GS Red); conditions: GR Binding Assay (I)
T1 construct: purified human recombinant full-length glucocorticoid receptor; purchased Invitrogen Part #2893
T1 sequence (P04150 1-777): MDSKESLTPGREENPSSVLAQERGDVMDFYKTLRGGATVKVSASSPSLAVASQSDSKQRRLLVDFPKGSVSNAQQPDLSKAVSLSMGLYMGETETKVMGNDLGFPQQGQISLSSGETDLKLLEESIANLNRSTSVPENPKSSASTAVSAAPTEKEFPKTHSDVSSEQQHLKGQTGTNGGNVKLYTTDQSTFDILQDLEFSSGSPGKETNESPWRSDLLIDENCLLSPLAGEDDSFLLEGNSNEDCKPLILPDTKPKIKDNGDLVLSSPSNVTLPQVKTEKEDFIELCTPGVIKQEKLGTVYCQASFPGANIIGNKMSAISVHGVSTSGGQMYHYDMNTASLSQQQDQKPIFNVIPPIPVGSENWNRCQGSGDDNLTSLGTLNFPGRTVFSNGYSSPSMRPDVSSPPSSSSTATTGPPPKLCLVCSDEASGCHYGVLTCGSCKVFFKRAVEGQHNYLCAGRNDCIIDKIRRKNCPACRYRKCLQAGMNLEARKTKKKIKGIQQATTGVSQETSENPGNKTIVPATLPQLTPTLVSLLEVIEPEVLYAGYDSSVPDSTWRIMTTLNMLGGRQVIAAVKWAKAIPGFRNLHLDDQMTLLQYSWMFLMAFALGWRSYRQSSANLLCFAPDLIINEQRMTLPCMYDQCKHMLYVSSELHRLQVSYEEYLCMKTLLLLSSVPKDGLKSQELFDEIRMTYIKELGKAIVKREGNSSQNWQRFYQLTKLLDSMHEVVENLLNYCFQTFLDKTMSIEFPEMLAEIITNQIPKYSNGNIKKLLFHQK
In short: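 Fluorescence polarization competition using full-length recombinant human GR (2 nM) and Fluormone GS Red tracer (1 nM). Incubated 2 h at room temperature in the dark. Compounds tested from 8.5 E-05 μM to 5 μM.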

[2] = target: T2, human full-length glucocorticoid receptor (Homo sapiens, UniProt P04150); experiment: Glucocorticoid Receptor Binding Assay (II), fluorescence polarization competitor kit (Fluormone GS1); conditions: GR Binding Assay (II)
T2 construct: recombinantly expressed human full-length glucocorticoid receptor; purchased PanVera Co., Madison, Wis; P2816
T2 sequence (P04150 1-777): T1 sequence (P04150 1-777)
In short: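 Cell lysate with recombinant receptor incubated with 1 nM Fluormone GS1 tracer, with or without test compound, for one hour at room temperature. Binding read as displacement by fluorescence polarization.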

| Structure (SMILES) | Ki [1] [nM] | Ki [2] [nM] |
| --- | --- | --- |
| Cc1cccc(C(c2ccc(N3CCOCC3)cc2)C(C)(C)C(=O)Nc2nncs2)c1 (stereo not shown) [Example 235, 2,2-dimethyl-3-(3-methylphenyl)-3-(4-(4-morpholinyl)phenyl)-N-1,3,4-thiadiazol-2-ylpropanamide] | 5.19 | 13.6 |
| CC(C)(C(=O)Nc1nccs1)[C@H](c1ccccc1)c1ccc(O)cc1 [Example 326, (3R)-3-(4-hydroxyphenyl)-2,2-dimethyl-3-phenyl-N-1,3-thiazol-2-ylpropanamide] | 18.7 | 12.9 |
